Measured values from PubChem BioAssay (NCI).
Where “and” joins values, the source holds several entries; their conditions need not be identical. Identical values can stand only once.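 Dose response: 5 concentrations. Exposure: 48 h. Format: 96-well plates. Endpoint: linear interpolation; highest concentration if not reached. GI50 marks 50% less growth. Definition used: TGI = concentration required for complete inhibition of growth.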

Legend:
Assay in all cases: NCI anticancer screen, dose series, 48 h
BT-549 breast = test system: BT-549 breast
CCRF-CEM leukemia = test system: CCRF-CEM leukemia
HCT-15 colon = test system: HCT-15 colon
HOP-92 NSCLC = test system: HOP-92 NSCLC
MCF7 breast = test system: MCF7 breast
NCI-H522 lung = test system: NCI-H522 lung
NCI/ADR-RES ovarian = test system: NCI/ADR-RES ovarian
OVCAR-3 ovarian = test system: OVCAR-3 ovarian
SK-MEL-2 melanoma = test system: SK-MEL-2 melanoma
U251 CNS = test system: U251 CNS

SMILES	GI50 (BT-549 breast) [µM]	TGI (BT-549 breast) [µM]	GI50 (CCRF-CEM leukemia) [µM]	TGI (CCRF-CEM leukemia)	GI50 (HCT-15 colon) [µM]	TGI (HCT-15 colon)	GI50 (HOP-92 NSCLC) [µM]	TGI (HOP-92 NSCLC) [µM]	GI50 (MCF7 breast) [µM]	TGI (MCF7 breast)	GI50 (NCI-H522 lung) [µM]	TGI (NCI-H522 lung)	GI50 (NCI/ADR-RES ovarian) [µM]	TGI (NCI/ADR-RES ovarian) [µM]	GI50 (OVCAR-3 ovarian)	TGI (OVCAR-3 ovarian)	GI50 (SK-MEL-2 melanoma) [µM]	TGI (SK-MEL-2 melanoma)	GI50 (U251 CNS) [µM]	TGI (U251 CNS)
Cc1ncc(-c2ccnc(Nc3ccc(S(C)(=O)=O)cc3)n2)n1C(C)C	0.925	7.22	0.987	> 7.12 µM	1.41	> 8.6 µM	0.926	6.16	0.523	> 10 µM	1.52	5.29 µM	2.46	> 10	0.853 µM	> 8.42 µM	1.38	3.17 µM	1.11	> 10 µM
CN1CCN(c2ccc(C(=O)Nc3cccc(C#Cc4cccc5[nH]nc(N)c45)c3)cc2C(F)(F)F)CC1	3.36	7.68	1.16	4.6 µM	0.644	1.27 µM	1.02	4.07	0.582	1.14 µM	0.566	1.3 µM	0.99	2.82	1.38 µM	4.73 µM	1.7	5.49 µM	0.707	1.95 µM
CCc1ncnc2cc(OCC3CO3)c(OC)cc12 (stereo unspecified)	–	15.1	–	27.2 µM	–	34.9 µM	–	26.7	–	> 42.7 µM	–	9.94 µM	–	> 100	–	> 100 µM	–	12.4 µM	–	> 100 µM
Cc1cc(S(N)(=O)=O)c(S/C(=N\Nc2ccc([N+](=O)[O-])cc2)c2ccc3ccccc3c2)cc1Cl	20.5	69.7	50.4	> 100 µM	20.1	41 µM	1.32	19.6	19.9	> 100 µM	22.9	> 100 µM	13.9	41.9	17.5 µM	58.5 µM	> 100	> 100 µM	19.7	59.4 µM
CC/C=C\C[C@H](O)C/C=C1/C(=O)C=C[C@@H]1C/C=C\CCCC(=O)NC	1.91	4.99	1.47	8.13 µM	1.52	5.09 µM	3.3	6.66	0.455	10.7 µM	1.54	3.77 µM	2.5	10.5	1.2 µM	4.11 µM	2.24	6.35 µM	1.3	4.26 µM
COC(=O)/C(=C\c1c(-c2ccccc2)[nH]c2ccccc12)S(C)(=O)=O	4.29	78.8	7.62	> 100 µM	2.35	12.1 µM	6.56	50.2	2.92	18.2 µM	3.06	14.5 µM	3.28	> 100	1.92 µM	3.97 µM	11.8	28.4 µM	3.62	18.3 µM
CSc1nc(N)c2c(n1)NC(c1ccccc1)C1CCc3ccccc3C1=N2 (stereo unspecified)	> 100	> 100	3.33	> 100 µM	7.61	> 100 µM	3.08	> 100	52	> 100 µM	2.59	8.84 µM	5.58	> 100	6.85 µM	> 100 µM	4.13	8.54 µM	> 100	> 100 µM
O=Nc1c(O)c2ccccc2c2ccccc12	1.25	2.55	1.25	> 100 µM	0.398	2.4 µM	2.32	4.57	1.46	4.11 µM	1.26	3.58 µM	0.387	2.95	0.754 µM	2.45 µM	1.8	3.99 µM	0.496	2.09 µM
CC(=O)NC1=C(Sc2ccc(Cl)cc2)C(=O)c2ccccc2C1=O	–	18	–	4.64 µM	–	19.1 µM	–	5.67	–	5.01 µM	–	1.18 µM	–	6.31	–	7.07 µM	–	16 µM	–	14.9 µM
C[C@@](O)(/C=C/[C@H]1CC=CC(=O)O1)[C@@H](C[C@@H](O)\C=C/C=C\C=C\CO)OP(=O)(O)O	–	36.6	3.52	335 µM and 34.1 µM	11.4	55.9 µM and 79.4 µM	–	10.6	5.01	13.9 µM and 50.4 µM	–	66.1 µM and 60.1 µM	–	143	12.1 µM and 2.94 µM	27.7 µM and 12.7 µM	19.8	65.2 µM and 42.4 µM	13.3	49 µM and 55.6 µM
